Reference: US20240336594A1, “SIX-MEMBERED ARYL OR HETEROARYL AMIDES, AND COMPOSITION AND USE THEREOF” (BETTA PHARMACEUTICALS CO., LTD, priority 2021, published 2024)

These compounds were tested against T1, MALT1 (Homo sapiens, UniProt Q9UDY8) (assay: MALT1 protease inhibition assay (AMC-labeled peptide, fluorescence 360/460)). Settings: substrate Ac-LRSR-AMC, 15 min preincubation, 90 min at 25° C.
T1 sequence (Q9UDY8 1-824): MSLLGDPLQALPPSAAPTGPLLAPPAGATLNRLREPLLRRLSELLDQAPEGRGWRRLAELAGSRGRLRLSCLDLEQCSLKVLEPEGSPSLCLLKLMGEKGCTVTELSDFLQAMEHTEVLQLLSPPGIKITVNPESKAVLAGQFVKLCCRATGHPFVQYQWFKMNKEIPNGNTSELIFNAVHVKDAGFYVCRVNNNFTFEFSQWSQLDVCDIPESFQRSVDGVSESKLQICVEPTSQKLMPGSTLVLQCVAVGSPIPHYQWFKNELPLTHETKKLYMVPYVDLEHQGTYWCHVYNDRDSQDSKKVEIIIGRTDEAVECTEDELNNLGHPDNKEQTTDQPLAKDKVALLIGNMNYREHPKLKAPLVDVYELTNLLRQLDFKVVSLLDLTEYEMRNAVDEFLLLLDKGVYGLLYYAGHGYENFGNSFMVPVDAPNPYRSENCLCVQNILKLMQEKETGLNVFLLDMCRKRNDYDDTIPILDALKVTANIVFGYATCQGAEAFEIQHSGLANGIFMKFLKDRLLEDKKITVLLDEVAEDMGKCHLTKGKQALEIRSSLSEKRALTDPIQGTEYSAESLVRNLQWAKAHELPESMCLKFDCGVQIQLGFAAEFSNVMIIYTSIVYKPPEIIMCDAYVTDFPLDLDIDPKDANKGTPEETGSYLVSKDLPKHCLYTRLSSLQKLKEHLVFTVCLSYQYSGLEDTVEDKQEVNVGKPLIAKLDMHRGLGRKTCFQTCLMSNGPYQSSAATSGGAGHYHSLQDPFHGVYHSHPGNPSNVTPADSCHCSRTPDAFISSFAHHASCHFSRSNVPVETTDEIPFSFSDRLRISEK
Type: biochemical
Method: Test compounds of the present invention (in 100% DMSO) were spotted into a 384-well dilution plate and serially diluted to the required concentrations with DMSO. Then, 0.2 μL of the test compounds were transferred into a new 384-well reaction plate by Echo following centrifugation. The MALT enzyme and its substrate, AMC-labeled peptide, were prepared in 1× protease buffer to yield 2× enzyme solution and 2× peptide solution. Subsequently, 10 μL of 2× enzyme solution was added into the 384-well reaction plate, incubating with the test compounds for 15 minutes at 25° C. After that, 10 μL of 2× peptide solution was added into the plate, continuing to incubate for 90 minutes at 25° C. The plate was then placed on an Envision multifunctional microplate reader to collect raw data, which would be converted into inhibition rate:
Inhibition rate %=(max−sample)/(max−min)*100%. • “max” values were measured using the reaction with enzyme but no compound treated, while “min” values were generated from control wells containing assay buffer without enzyme.
Curve fitting was done with Graphpad Prism software to determine the IC50 values. The specific experimental operations are as follows:
58.82 g Na Citrate·2H2O powder was added into 140 mL ddH2O and mixed in a 37° C. water bath. Once there were no visible particles, the remaining solutions were added successively with continuous stirring for 10 minutes. The final volume was adjusted to 200 mL. The buffer was stored at room temperature. DTT was added before use.
• 1) All test compounds were diluted from 10 mM stock solution into 1 mM in a 384 well dilution plate (labcyte, PP-0200); • 2) Ten various concentrations of the diluted compound solution above were obtained by serial dilution at an equal ratio of 1:3; • 3) 0.2 μL DMSO was transferred to two empty wells of the 384 reaction plate as blank controls without compound and enzyme respectively; • 4) 0.2 μL of the test compound at different concentrations was also transferred into the 384 reaction plate by Echo, with two duplicate wells for each concentration, then the plate was centrifuged at 1000 rpm for 1 min.
• 1) The MALT1 protease and AMC-labeled peptide was prepared in 1× protease buffer to obtain 2× enzyme solution and 2× peptide solution. 10 μL of 2× enzyme solution was added into the 384-well reaction plate. The plate was centrifuged at 1000 rpm for 1 min and incubated for 15 min at 25° C. • 2) 10 μL of 2× peptide solution was then transferred to the 384 reaction plate, and the plate was centrifuged at 1000 rpm for 1 min and incubate for 90 min at 25° C.

| IC50 | Structure (SMILES) |
| --- | --- |
| 0.01 to 0.1 µM | C#Cc1cc(C(=O)Nc2cnc(-n3nccn3)c(Cl)c2)c(C)cc1-c1ccc(F)cc1Cl [Example A414, 2′-chloro-N-(5-chloro-6-(2H-1,2,3-triazol-2-yl)pyridin-3-yl)-2-ethynyl-4′-fluoro-5-methyl-[1,1′-biphenyl]-4-carboxamide] |
| > 0.5 µM | Cc1cc(-c2ccc(F)cc2N)c(C2=CCCC2)cc1C(=O)Nc1cnc(-n2nccn2)c(Cl)c1 [Example A420, 2′-amino-N-(5-chloro-6-(2H-1,2,3-triazol-2-yl)pyridin-3-yl)-2-(cyclopent-1-en-1-yl)-4′-fluoro-5-methyl-[1,1′-biphenyl]-4-carboxamide] |
| ≤ 0.01 µM | C#Cc1cc(F)cnc1-c1cc(Cl)c(C(=O)Nc2ccnc(C(F)(F)F)c2)cc1F [Example A324, 2-chloro-4-(3-ethyny1-5-fluoropyridin-2-y1)-5-fluoro-N-(2-(trifluoromethyl)pyridin-4-yl)benzamide] |
| 0.01 to 0.1 µM | Nc1cc(F)ccc1-c1cc(Cl)c(C(=O)Nc2cnc(C(=O)NCCF)c(Cl)c2)cc1F [Example A461, 5-(2′-amino-5-chloro-2,4′-difluoro-[1,1′-biphenyl]-4-carboxamido)-3-chloro-N-(2-fluoroethyl)picolinamide] |
| ≤ 0.01 µM | C#Cc1cnc(C#N)c(N)c1-c1cc(Cl)c(C(=O)Nc2cnc(-n3nccn3)c(C(F)(F)F)c2)cc1F [Example A554, N-(6-(2H-1,2,3-triazol-2-yl)-5-(trifluoromethyl)pyridin-3-yl)-4-(3-amino-2-cyano-5-ethynylpyridin-4-yl)-2-chloro-5-fluorobenzamide] |
| > 0.5 µM | C#CCNC(=O)c1ncc(NC(=O)c2cc(F)c(-c3ccc(F)cc3N)cc2Cl)cc1Cl [Example A439, 5-(2′-amino-5-chloro-2,4′-difluoro-[1,1′-biphenyl]-4-carboxamido)-3-chloro-N-(prop-2-yn-1-yl) picolinamide] |
| 0.01 to 0.1 µM | Nc1cc(F)ccc1-c1cc(Cl)c(C(=O)Nc2cnc(-n3nccn3)c(Cl)c2)cc1N [Example A460, 2,2′-diamino-5-chloro-N-(5-chloro-6-(2H-1,2,3-triazol-2-yl)pyridin-3-yl)-4′-fluoro-[1,1′-biphenyl]-4-carboxamide] |
| > 0.5 µM | Nc1cc(F)ccc1-c1cc(Cl)c(C(=O)Nc2cnc(C(=O)NCC(F)(F)C(F)(F)C(F)(F)F)c(Cl)c2)cc1F [Example A458, 5-(2′-amino-5-chloro-2,4′-difluoro-[1,1′-biphenyl]-4-carboxamido)-3-chloro-N-(2,2,3,3,4,4,4-heptafluorobutyl) picolinamide] |
| 0.01 to 0.1 µM | Nc1cc(F)ccc1-c1cc(Cl)c(C(=O)Nc2cnc(C(=O)NCC3CCS(=O)(=O)CC3)c(Cl)c2)cc1F [Example A437, 5-(2′-amino-5-chloro-2,4′-difluoro-[1,1′-biphenyl]-4-carboxamido)-3-chloro-N-((1,1-dioxidotetrahydro-2H-thiopyran-4-yl)methyl)picolinamide] |
| > 0.5 µM | Cc1cc(-c2ccc(F)cc2N)c(-c2ccccc2)cc1C(=O)Nc1cnc(-n2nccn2)c(Cl)c1 [Example A421, 2-amino-N-(5-chloro-6-(2H-1,2,3-triazol-2-yl)pyridin-3-yl)-4-fluoro-5′-methyl-[1,1′:2′,1″-terphenyl]-4′-carboxamide] |
| ≤ 0.01 µM | Nc1c(Cl)ncc(Br)c1-c1cc(Cl)c(C(=O)Nc2cnc(-n3nccn3)c(C(F)(F)F)c2)cc1F [Example A558] |
| ≤ 0.01 µM | C#Cc1cc(F)cnc1-c1cc(Cl)c(C(=O)Nc2cnc(-n3nccn3)c(Cl)c2)cc1F [Example A335, 2-chloro-N-(5-chloro-6-(2H-1,2,3-triazol-2-yl)pyridin-3-y1)-4-(3-ethyny1-5-fluoropyridin-2-y1)-5-fluorobenzamide] |
| 0.01 to 0.1 µM | C=Cc1cc(C(=O)Nc2cnc(-n3nccn3)c(Cl)c2)c(Cl)cc1-c1ccc(F)cc1N [Example A424, 2′-amino-5-chloro-N-(5-chloro-6-(2H-1,2,3-triazol-2-yl)pyridin-3-yl)-4′-fluoro-2-vinyl-[1,1′-biphenyl]-4-carboxamide] |
| ≤ 0.01 µM | C#Cc1cnc(F)c(N)c1-c1cc(Cl)c(C(=O)Nc2cnc(-n3nccn3)c(Cl)c2)cc1F [Example A485, 4-(3-amino-5-ethynyl-2-fluoropyridin-4-yl)-2-chloro-N-(5-chloro-6-(2H-1,2,3-triazol-2-yl)pyridin-3-yl)-5-fluorobenzamide] |

The remaining lines, values behind:

| Structure (SMILES) | IC50 |
| --- | --- |
| Nc1cc(F)ccc1-c1cc(Cl)c(C(=O)Nc2cnc(C(=O)NCC(F)(F)C(F)(F)F)c(Cl)c2)cc1F [Example A467, 5-(2′-amino-5-chloro-2,4′-difluoro-[1,1′-biphenyl]-4-carboxamido)-3-chloro-N-(2,2,3,3,3-pentafluoropropyl) picolinamide] | 0.1 to 0.5 µM |
| Nc1cncc(Br)c1-c1cc(Cl)c(C(=O)Nc2cnc(-n3nccn3)c(C(F)(F)F)c2)cc1F [Example A517, N-(6-(2H-1,2,3-triazol-2-yl)-5-(trifluoromethyl)pyridin-3-yl)-4-(3-amino-5-bromopyridin-4-yl)-2-chloro-5-fluorobenzamide] | ≤ 0.01 µM |
| C#Cc1cc(C(=O)Nc2cnc(-n3nccn3)c(Cl)c2)c(C)cc1-c1ccncc1OC [Example A417, N-(5-chloro-6-(2H-1,2,3-triazol-2-yl)pyridin-3-yl)-5-ethynyl-4-(3-methoxypyridin-4-yl)-2-methylbenzamide] | 0.01 to 0.1 µM |
| C#Cc1cnccc1-c1cc(Cl)c(C(=O)Nc2ccc(OC)c(Cl)c2)cc1F [Example A338, 2-chloro-N-(3-chloro-4-methoxyphenyl)-4-(3-ethynylpyridin-4-y1)-5-fluorobenzamide] | ≤ 0.01 µM |
| C=Cc1cncc(N)c1-c1cc(Cl)c(C(=O)Nc2cnc(-n3nccn3)c(Cl)c2)cc1F [Example A507, 4-(3-amino-5-vinylpyridin-4-yl)-2-chloro-N-(5-chloro-6-(2H-1,2,3-triazol-2-yl)pyridin-3-yl)-5-fluorobenzamide] | ≤ 0.01 µM |
| C=C(C)c1cncc(N)c1-c1cc(Cl)c(C(=O)Nc2cnc(-n3nccn3)c(Cl)c2)cc1F [Example A504, 4-(3-amino-5-(prop-1-en-2-yl)pyridin-4-yl)-2-chloro-N-(5-chloro-6-(2H-1,2,3-triazol-2-yl)pyridin-3-yl)-5-fluorobenzamide] | ≤ 0.01 µM |
| C#Cc1cnccc1-c1c(F)c(F)c(C(=O)Nc2cnc(-n3nccn3)c(Cl)c2)c(F)c1F [Example A333, N-(5-chloro-6-(2H-1,2,3-triazol-2-yl)pyridin-3-y1)-4-(3-ethynylpyridin-4-y1)-2,3,5,6-tetrafluorobenzamide] | ≤ 0.01 µM |
| C#Cc1cc(F)ccc1-c1cc(C)c(C(=O)Nc2cnc(-n3nccn3)c(Cl)c2)cc1C#C [Example A415] | 0.01 to 0.1 µM |
| C#Cc1cnccc1-c1cc(Cl)c(C(=O)Nc2cnc(C(=O)NCCC)c(Cl)c2)cc1F [Example A430, 3-chloro-5-(2-chloro-4-(3-ethynylpyridin-4-yl)-5-fluorobenzamido)-N-propylpicolinamide] | ≤ 0.01 µM |
| Nc1cc(F)ccc1-c1cc(Cl)c(C(=O)Nc2cnc(C(=O)NCC3(C(F)(F)F)CC3)c(Cl)c2)cc1F [Example A468, 5-(2′-amino-5-chloro-2,4′-difluoro-[1,1′-biphenyl]-4-carboxamido)-3-chloro-N-((1-(trifluoromethyl)cyclopropyl)methyl) picolinamide] | 0.1 to 0.5 µM |
